Assay [1] concerns the target T1, ABHD6 (Mus musculus, UniProt Q8R2Y0).
T1 sequence (Q8R2Y0 1-336): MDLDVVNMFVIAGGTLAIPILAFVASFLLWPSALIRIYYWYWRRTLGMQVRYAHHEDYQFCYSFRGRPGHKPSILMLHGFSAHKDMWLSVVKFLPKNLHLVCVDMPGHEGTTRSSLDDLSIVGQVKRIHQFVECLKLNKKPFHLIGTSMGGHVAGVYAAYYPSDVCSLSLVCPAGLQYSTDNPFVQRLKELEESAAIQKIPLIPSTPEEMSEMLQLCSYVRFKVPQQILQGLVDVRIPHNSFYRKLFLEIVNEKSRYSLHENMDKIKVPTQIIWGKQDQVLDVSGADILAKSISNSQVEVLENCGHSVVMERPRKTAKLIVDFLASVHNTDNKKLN
The assay can be described thus: biochemical. Particulars: in vitro competitive ABPP.

For assay [2], the target named is T2, FAAH (Mus musculus, UniProt O08914).
T2 sequence (O08914 1-579): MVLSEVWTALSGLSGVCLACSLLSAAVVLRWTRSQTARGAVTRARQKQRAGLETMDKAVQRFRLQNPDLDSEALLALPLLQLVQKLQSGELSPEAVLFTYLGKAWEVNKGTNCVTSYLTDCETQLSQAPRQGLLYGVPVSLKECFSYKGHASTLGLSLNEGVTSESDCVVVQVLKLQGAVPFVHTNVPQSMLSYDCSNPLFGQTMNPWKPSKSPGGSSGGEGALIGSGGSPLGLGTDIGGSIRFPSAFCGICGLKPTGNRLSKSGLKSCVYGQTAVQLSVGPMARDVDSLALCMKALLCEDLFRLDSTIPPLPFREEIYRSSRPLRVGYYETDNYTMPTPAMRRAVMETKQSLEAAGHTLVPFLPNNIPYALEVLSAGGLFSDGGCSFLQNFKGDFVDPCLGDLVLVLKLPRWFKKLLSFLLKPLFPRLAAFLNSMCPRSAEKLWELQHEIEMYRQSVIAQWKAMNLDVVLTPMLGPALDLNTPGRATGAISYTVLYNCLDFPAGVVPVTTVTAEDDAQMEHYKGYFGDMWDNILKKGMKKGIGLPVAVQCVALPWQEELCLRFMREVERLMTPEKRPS
The assay can be described thus: biochemical. Particulars: in vitro competitive ABPP.

The target in assay [3] is T3, MAGL (Mus musculus, UniProt O35678).
T3 sequence (O35678 1-303): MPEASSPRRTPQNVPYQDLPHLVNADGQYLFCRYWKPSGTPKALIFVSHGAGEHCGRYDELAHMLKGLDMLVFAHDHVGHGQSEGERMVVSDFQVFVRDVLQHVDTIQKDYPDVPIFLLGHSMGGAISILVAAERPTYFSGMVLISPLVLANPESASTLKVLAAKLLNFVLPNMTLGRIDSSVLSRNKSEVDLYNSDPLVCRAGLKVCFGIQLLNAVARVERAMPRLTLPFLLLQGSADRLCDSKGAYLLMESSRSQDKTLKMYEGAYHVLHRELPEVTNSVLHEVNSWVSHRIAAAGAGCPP
As to the kind of experiment: biochemical.

Assay [4] concerns the target T1, ABHD6. As to the kind of experiment: In vitro competitive activity-based protein profiling (Table 2, % inhibition at 1 μM). The conditions noted are these: read-out: % Inhibition at 1 μM ABHD6. The class given is biochemical.
For assay [5], the target named is T2, FAAH. Described as above. Particulars: read-out: % Inhibition at 1 μM FAAH. The class given is biochemical.
Assay [6] addresses T3, MAGL. The description is as above. The class given is biochemical. Particulars: read-out: % Inhibition at 1 μM MAGL. On the procedure: After 30 min, FP—Rh (1.0 μL, 50 μM in DMSO) was added and the mixture was incubated for another 30 min at 37° C. Reactions were quenched with SDS loading buffer (50 μL-4×) and run on SDS-PAGE.
Cell lysates were diluted with mock proteomes for use in competitive ABPP experiments.

[7] abbreviates: mouse, in vitro competitive ABPP, read-out: Mouse (IC50 value, nM) MAGL.

Like-named read-outs stand apart in the source and are kept apart here.

Consider `CCn1ncc(CN2CC3CN(C(=O)OC(C(F)(F)F)C(F)(F)F)CC3C2)c1C(=O)NCC1CCOCC1` (stereo not drawn) [Example 181, 1,1,1,3,3,3-hexafluoropropan-2-yl 5-((1-ethyl-5-(((tetrahydro-2H-pyran-4-yl)methyl)carbamoyl)-1H-pyrazol-4-yl)methyl)hexahydropyrrolo[3,4-c]pyrrole-2(1H)-carboxylate], for which the half-inhibitory concentration (IC50) on ABHD6 [1] was 100 to 1000 nM; on FAAH [2], above 10000 nM; on MAGL [3] (setting [7]), below 100 nM. Also, the inhibition at 1 µM on ABHD6 [4] was 25 to 75%; at FAAH [5] it was below 25%; at MAGL [6], above 75%.

As for `O=C(ON1C(=O)CCC1=O)N1CC2CN(Cc3ccc(Cl)cc3N3CC4CCC(C3)O4)CC2C1` (stereo not drawn) [Example 81, 2,5-Dioxopyrrolidin-1-yl 5-(2-(8-oxa-3-azabicyclo[3.2.1]octan-3-yl)-4-chlorobenzyl)hexahydropyrrolo[3,4-c]pyrrole-2(1H)-carboxylate], the concentration for half-maximal inhibition (IC50) at ABHD6 [1] lay within 1000 to 10000 nM; at FAAH [2], 1000 to 10000 nM; at MAGL [3] it was 100 to 1000 nM. Also, the inhibition at 1 µM at ABHD6 [4] is 25 to 75%; at FAAH [5] it was below 25%; at MAGL [6] it was 25 to 75%.

For the compound `O=C(OC(C(F)(F)F)C(F)(F)F)N1CC2CN(Cc3ccc(N4CCOCC4)cc3F)CC2C1` (stereo not drawn) [Example 1, 1,1,1,3,3,3-Hexafluoropropan-2-yl 5-(2-fluoro-4-morpholinobenzyl)hexahydropyrrolo[3,4-c]pyrrole-2(1H)-carboxylate], the concentration for half-maximal inhibition (IC50) on ABHD6 [1] was 1000 to 10000 nM; at FAAH [2], 100 to 1000 nM; at MAGL [3] (setting [7]), below 100 nM. Also, the inhibition at 1 µM at ABHD6 [4] is below 25%; at FAAH [5], 25 to 75%; at MAGL [6], above 75%.

Take `Cn1cc(CN2CC3CN(C(=O)ON4C(=O)CCC4=O)CC3C2)c(-c2ccccc2)n1` (stereo not drawn) [Example 114, 2,5-Dioxopyrrolidin-1-yl 5-((1-methyl-3-phenyl-1H-pyrazol-4-yl)methyl)hexahydropyrrolo[3,4-c]pyrrole-2(1H)-carboxylate]: the half-maximal inhibitory concentration (IC50) at ABHD6 [1] is 1000 to 10000 nM; on FAAH [2], above 10000 nM; at MAGL [3] (setting [7]) it was 100 to 1000 nM.

Take `O=C(OC(C(F)(F)F)C(F)(F)F)N1CC2CN(Cc3c(N4CC5COCC5C4)cccc3C(F)(F)F)CC2C1` (stereo not drawn) [Example 209, 1,1,1,3,3,3-hexafluoropropan-2-yl 5-(2-(tetrahydro-1H-furo[3,4-c]pyrrol-5(3H)-yl)-6-(trifluoromethyl)benzyl)hexahydropyrrolo[3,4-c]pyrrole-2(1H)-carboxylate]: the IC50 on ABHD6 [1] is 1000 to 10000 nM; on FAAH [2], above 10000 nM; on MAGL [3] (setting [7]), 100 to 1000 nM. Besides, the inhibition at 1 µM at ABHD6 [4] was 25 to 75%; on FAAH [5] it was below 25%; at MAGL [6], above 75%.

As to `CC(=O)NC1CN(c2ccc(Cl)cc2CN2CC3CN(C(=O)OC(C(F)(F)F)C(F)(F)F)CC3C2)C1` (stereo not drawn) [Example 7, 1,1,1,3,3,3-Hexafluoropropan-2-yl 5-(2-(3-acetamidoazetidin-1-yl)-5-chlorobenzyl)hexahydropyrrolo[3,4-c]pyrrole-2(1H)-carboxylate], the IC50 on ABHD6 [1] is 1000 to 10000 nM; at FAAH [2], 1000 to 10000 nM; at MAGL [3] (setting [7]) it was below 100 nM.

Regarding `CS(=O)(=O)NC1CCN(c2ccc(Cl)cc2CN2CC3CN(C(=O)OC(C(F)(F)F)C(F)(F)F)CC3C2)CC1` (stereo not drawn) [Example 6, 1,1,1,3,3,3-Hexafluoropropan-2-yl 5-(5-chloro-2-(4-(methylsulfonamido)piperidin-1-yl)benzyl)hexahydropyrrolo[3,4-c]pyrrole-2(1H)-carboxylate], the results for the half-inhibitory concentration (IC50) at ABHD6 [1], at FAAH [2] and at MAGL [3] (setting [7]) were 1000 to 10000 nM, 1000 to 10000 nM and 100 to 1000 nM, respectively.

With `O=C(ON1C(=O)CCC1=O)N1CC2CN(Cc3ccc(N4CCOCC4)cc3F)CC2C1` (stereo not drawn) [Example 79, 2,5-Dioxopyrrolidin-1-yl 5-(2-fluoro-4-morpholinobenzyl)hexahydropyrrolo[3,4-c]pyrrole-2(1H)-carboxylate], the IC50 at ABHD6 [1], on FAAH [2] and at MAGL [3] (setting [7]) was 1000 to 10000 nM throughout.

In the case of `CCn1ncc(CN2CC3CN(C(=O)OC(C(F)(F)F)C(F)(F)F)CC3C2)c1C(=O)N1CCOCC1` (stereo not drawn) [Example 73, 1,1,1,3,3,3-Hexafluoropropan-2-yl 5-((1-ethyl-5-(morpholine-4-carbonyl)-1H-pyrazol-4-yl)methyl)hexahydropyrrolo[3,4-c]pyrrole-2(1H)-carboxylate], the half-maximal inhibitory concentration (IC50) on ABHD6 [1] is above 10000 nM; on FAAH [2] it was above 10000 nM; at MAGL [3] (setting [7]), 100 to 1000 nM.

For the compound `CC(=O)NC1CCN(c2ccc(Cl)cc2CN2CC3CN(C(=O)OC(C(F)(F)F)C(F)(F)F)CC3C2)CC1` (stereo not drawn) [Example 5, 1,1,1,3,3,3-Hexafluoropropan-2-yl 5-(2-(4-acetamidopiperidin-1-yl)-5-chlorobenzyl)hexahydropyrrolo[3,4-c]pyrrole-2(1H)-carboxylate], the values for the half-inhibitory concentration (IC50) on ABHD6 [1], on FAAH [2] and at MAGL [3] (setting [7]) were 1000 to 10000 nM, 1000 to 10000 nM and 100 to 1000 nM, respectively.

For `O=C(ON1C(=O)CCC1=O)N1CC2CN(Cc3ccc(Cl)cc3N3CCC4(CCNC4=O)CC3)CC2C1` (stereo not drawn) [Example 112, 2,5-Dioxopyrrolidin-1-yl 5-[(4-chloro-2-[1-oxo-2,8-diazaspiro[4.5]decan-8-yl]phenyl)methyl]-octahydropyrrolo[3,4-c]pyrrole-2-carboxylate], the results for the inhibition at 1 µM on ABHD6 [4], at FAAH [5] and at MAGL [6] were below 25%, below 25% and 25 to 75%, respectively.

With `O=C(ON1C(=O)CCC1=O)N1CC2CN(Cc3ccc(C(=O)N4CCCC4)cc3Cl)CC2C1` (stereo not drawn) [Example 164, 2,5-dioxopyrrolidin-1-yl 5-(2-chloro-4-(pyrrolidine-1-carbonyl)benzyl)-hexahydropyrrolo[3,4-c]pyrrole-2(1H)-carboxylate], the inhibition at 1 µM at ABHD6 [4] was 25 to 75%; at FAAH [5] it was below 25%; on MAGL [6], 25 to 75%.

Turning to `CCN1CCN(c2cccc(CN3CC4CN(C(=O)ON5C(=O)CCC5=O)CC4C3)c2C)CC1` (stereo not drawn) [Example 146], the inhibition at 1 µM on ABHD6 [4] was below 25%; at FAAH [5], below 25%; at MAGL [6], 25 to 75%.

In the case of `CC(C)c1ccc(CN2CC3CN(C(=O)ON4C(=O)CCC4=O)CC3C2)c(N2CCCC2)c1` (stereo not drawn) [Example 98, 2,5-Dioxopyrrolidin-1-yl 5-[[4-(propan-2-yl)-2-(pyrrolidin-1-yl)phenyl]methyl]-octahydropyrrolo[3,4-c]pyrrole-2-carboxylate], the values for the inhibition at 1 µM at ABHD6 [4], at FAAH [5] and on MAGL [6] were below 25%, below 25% and 25 to 75%, respectively.

On to `CC(C)n1cc(CN2CC3CN(C(=O)ON4C(=O)CCC4=O)CC3C2)c(-c2ccccc2)n1` (stereo not drawn) [Example 117, 2,5-Dioxopyrrolidin-1-yl 5-[[3-phenyl-1-(propan-2-yl)-1H-pyrazol-4-yl]methyl]-octahydropyrrolo[3,4-c]pyrrole-2-carboxylate], for which the figures for the inhibition at 1 µM at ABHD6 [4], on FAAH [5] and at MAGL [6] were 25 to 75%, below 25% and 25 to 75%, respectively.

For the compound `Cc1cccc(-c2cc(CN3CC4CN(C(=O)ON5C(=O)CCC5=O)CC4C3)n(C)n2)c1` (stereo not drawn) [Example 199, 2,5-dioxopyrrolidin-1-yl 5-((1-methyl-3-(m-tolyl)-1H-pyrazol-5-yl)methyl)hexahydropyrrolo[3,4-c]pyrrole-2(1H)-carboxylate], the inhibition at 1 µM at ABHD6 [4] is below 25%; at FAAH [5] it was below 25%; on MAGL [6], 25 to 75%.

The record behind these values is patent publication US9828379B2 (priority 2013, dated 2017).
